Results published in patent publication US12435315B2, “Generating dorsal foregut, and anterior domain, endoderm cells” (The Cleveland Clinic Foundation, priority 2019, dated 2025).

Columns and labels:
Format in all cases: cell-based, human
DFE culture = test: Sequential DoE/ISPA modelling on DFE culture, maximizing SOX2, OSR1 or PDX1 expression; settings: ISPA; for factor contribution (FC) for PDX1 (pancreatic) activation: PDX1^Opt
Description: Since we observed that the DFE cultures were competent for both stomach and pancreas induction we next evaluated this bi-potential nature through a sequential DoE modelling experiment performed on the DFE culture.
Results from ISPA maximization of the expression of SOX2, OSR1 or PDX1 were compared (FIGS. 4A & B).
Pluripotent cultures were adapted to Essential 8 media (Gibco A15169-01) and grown on vitronectin (Gibco A14700) coated plates (Corning Inc. 3598). Differentiation experiments were seeded at 75,000 cells per cm^2 and maintained in E8 medium for 48 hours until cultures were approximately 90% confluent before initiating differentiation. All growth factors and small molecules were reconstituted according to supplier's recommendations and aliquots were stored at −80° C. for up to a year. Growth medium was changed daily and with the exception of the DE protocol the basal medium used in all differentiation experiments was CDM2 (Loh et al., 2014). The APS^Opt was composed of 250 nM LDN3189 (Sellekchem S2618), 50 ng/ml Activin A (Peprotech 120-14), 20 ng/ml bFGF (Gibco 13256029), 100 nM Sant1 (Sellekchem S7092). The HNF1β^Opt was supplemented with 250 nM LDN3189, 500 nM A8301 (Biogems 4463325), 12.6 ng/ml Wnt3a (R&D 5036WN/CF), 25 ng/ml bFGF, 250 nM PD0325 (Selleckchme S1036), 40 ng/ml SHH (Peprotech 100-45) and 2 uM retinoic acid (Sigma Aldrich R2625). […] The PDX1^Opt was composed of 500 nM A8301, 250 nM LDN3189, 100 nM Sant1, 250 nM PD0325, 2 uM retinoic acid and 1% B27 supplement (Gibco 12587) and with the exception of where it is stated differently in the text was used for 3 sequential days on differentiating cells.

pluripotent cultures [1] = test: DoE/ISPA modeling of endodermal gene induction from pluripotency (3-day perturbation matrix, OpenArray RT-QPCR); settings: ISPA prediction; for factor contribution (FC) for FOXA2 expression / factor contribution (FC) for HNF1β expression / factor contribution (FC) for MNX1 expression: pluripotent cultures
Description: Pluripotent cultures were adapted to Essential 8 media (Gibco A15169-01) and grown on vitronectin (Gibco A14700) coated plates (Corning Inc. 3598). Differentiation experiments were seeded at 75,000 cells per cm^2 and maintained in E8 medium for 48 hours until cultures were approximately 90% confluent before initiating differentiation. All growth factors and small molecules were reconstituted according to supplier's recommendations and aliquots were stored at −80° C. for up to a year. Growth medium was changed daily and with the exception of the DE protocol the basal medium used in all differentiation experiments was CDM2 (Loh et al., 2014). The APS^Opt was composed of 250 nM LDN3189 (Sellekchem S2618), 50 ng/ml Activin A (Peprotech 120-14), 20 ng/ml bFGF (Gibco 13256029), 100 nM Sant1 (Sellekchem S7092). The HNF1β^Opt was supplemented with 250 nM LDN3189, 500 nM A8301 (Biogems 4463325), 12.6 ng/ml Wnt3a (R&D 5036WN/CF), 25 ng/ml bFGF, 250 nM PD0325 (Selleckchme S1036), 40 ng/ml SHH (Peprotech 100-45) and 2 uM retinoic acid (Sigma Aldrich R2625). DE was generated using conditions previously described (Rezania et al., 2014, D'Amour et al., 2005). The PDX1^Opt was composed of 500 nM A8301, 250 nM LDN3189, 100 nM Sant1, 250 nM PD0325, 2 uM retinoic acid and 1% B27 supplement (Gibco 12587) and with the exception of where it is stated differently in the text was used for 3 sequential days on differentiating cells. Endocrine push medium was supplemented with 100 nM gamma-secretase inhibitor XX (EMD Millipore 565789) and 500 nM A8301. Stomach organoids were generated using a modified protocol (McCracken et al., 2014). Briefly HNF1β^Opt cultures were incubated for three days with a stage 2 medium supplemented with 500 ng/ml Wnt3a, 500 ng/ml FGF4 (R&D 7460-F4), 250 nM LDN3189 and 2 uM retinoic acid (RA first day only). Cultures were passaged 1:6 with seeding occurring in a 1:4 Matrigel (Fisher Scientific 354230)/CDM2 mixture and incubated for 30 minutes at 37° C. before a three day application of stage 3 medium composed of 2 uM retinoic acid, 250 nM LDN3189 and 100 ng/ml EGF (R&D 236-EG). Cultures were then supplemented with a stage 4 medium supplemented with 100 ng/ml EGF for 23 days before organoids were recovered and fixed for sectioning.
(§1) All DoE experimental designs were computer generated using D-optimal interaction designs in MODDE software (Sartorius Stedim Data Analytical Solutions, SSDAS). Perturbation matrixes were generated (96 independent experimental runs) on a Freedom Evol50 liquid handling robot (TECAN, CH). Each DoE differentiation experiment used a 3-day application of perturbation matrixes with daily media replacements. All cell culture, including manual preparatory expansion and seeding as well as any robotic manipulations were contained in a modular X-Vivo system (Biospherix, NY, USA) providing Process Analytical Technology (PAT) of the cell culture conditions (affording % N2, % O2, % CO2, and temperature control and monitoring at any point in the experimental process). End-point data collection was performed using an Open Array RT-QPCR method (QuantStudio, Life Technologies, 53 genes/sample/card). QuantStudio gene expression data were normalized within Expression Suite™ (Life Tech), standardized, and exported to MODDE. Mathematical modeling of the differentiation space was performed in MODDE using PLS maximizing the explained variance and subsequently gene-specific models were tuned by Q2 maximization. Fitted model optimized conditions for response maximization or minimization were extracted using the software predictive tools ‘optimizer’ and ‘dynamic profile’ analysis. Virtual experiments were performed in the known space covered by the experimental design, addressing pathway relative contributions to the desired parameters.
RNA extractions for modeling analysis were performed using a MagMax-96 Total RNA Isolation Kit (Life Technologies AM1830) and performed according to manufacturer's protocol. […]

[2] = tested on: DFE-derived endocrine cultures; test: Glucose stimulated insulin release assay (GSIS), C-peptide ELISA; settings: 30 mM KCl, 30 minute incubation, versus 2 mM glucose basal
Description: GSIS assays were performed by incubating cells in Krebs-Ringer buffer supplemented with 2 mM glucose for 30 minutes for determination of basal C-peptide levels. This was followed by changing reaction buffer to a Krebs Ringer buffer either supplemented with 20 mM glucose or 30 mM KCl for an additional 30 minute incubation. Buffer samples were collected and C-Peptide levels were quantified using ELISA (Mercodia 10-1141-01) according to manufacturer's protocol. Microfludic assays were performed as previously described (Adewola et al., 2010, Wang et al., 2012).

pluripotent stem cells [3] = test: DoE/ISPA of biologically active retinoids for HNF1β induction (DFE induction); settings: retinoid DoE; 13-cis and all trans stated to contribute negatively
Description: as §1
Samples were loaded onto a custom design Quant Studio Card using an OpenArray AccuFill System (Life Technologies 4471021) and ran on a QuantStudio 12k Flex Real-Time PCR System (Life Technologies 4471090). The QuantStudio Open Array analysis provided expression information of 53 chosen genes per open array configuration. […] Initial designs included genes responding to all major sub-lineage fates downstream of pluripotency, while the later design focused more on endodermal lineages with an emphasis on pancreatic fates. […]

pluripotent stem cells [4] = test: Immunostaining and high content imaging of DFE markers (conversion efficiency); settings: immunostaining of DFE markers, compared with HNF1β^Opt / RA
Description: Histological characterization occurred by treating cell cultures with 4% paraformaldehyde (EMD 30525-89-4) solution at ambient temperature for 15 minutes. Samples were then blocked and permeabilized using 0.1M Tris/HCl (Promega H5123) pH 7.5 supplemented with 0.5% blocking reagent (Perkin Elmer FP1012) and 0.1% TrintonX-100 (Fisher Scientific BP151) for 1 hour. All antibody solutions were diluted in 0.1M Tris/HCl (Promega H5123) pH 7.5 and primary antibodies were incubated over-night while secondary antibodies were incubated for an hour. All incubations occurred at ambient temperature. Cultures were treated with a 1:2 dilution of Vectashield mounting medium (Vector Laboratories H-1200).
To further validate the induction conditions for DFE markers, immunostaining was performed, followed by high content imaging to assess conversion efficiency.

pluripotent cultures [5] = test: HD-DoE gastrulation modeling, normalized effector factor contributions for endodermal genes; settings: ISPA
Description: as §1, with “Virtual experiments were performed in the known space covered by the experimental design, addressing pathway relative contributions to the desired parameters.” left out
To better understand how the in vitro produced endodermal populations being studied are patterned we next performed a follow-up DoE-based gastrulation modeling experiment (FIG. 16A). ISPA optimizing for all the individual endoderm genes measured were then subjected to a cluster analysis using Seurat R package (FIG. 16B). […]
HD-DoE designs incorporating Activin A (AA), BMP4, NODAL, retinoic acid and respective inhibitors were used on pluripotent cultures and key endodermal genes were monitored (FIG. 16). Resulting data was imported into analysis software and computer models predicting optimal culture conditions for activating all genes monitored were clustered (FIG. 19B). […]

## SHH
DFE culture
  factor contribution (FC) for SOX2 expression: 29.58

## c1ccc2c(-c3cnn4cc(-c5ccc(N6CCNCC6)cc5)cnc34)ccnc2c1 [BMPi, LDN193189]
Pluripotent cultures [1]
  factor contribution (FC) for FOXA2 expression: 25.3
  factor contribution (FC) for HNF1β expression: 31.7
  factor contribution (FC) for MNX1 expression: 30.5

## [Cl-].[K+] [KCl]
[2]
  increase in detectable C-peptide levels: 4 fold

## CC1=C(/C=C/C(C)=C/C=C/C(C)=C\C(=O)O)C(C)(C)CCC1 [13-cis retinoic acid]
Pluripotent stem cells [3]
  factor contribution (FC) to HNF1β induction: 24.1609

## CC1=C(/C=C/C(C)=C/C=C/C(C)=C/C(=O)O)C(C)(C)CCC1=O [4-oxo-retinoic acid]
Pluripotent stem cells [3]
  factor contribution (FC) to HNF1β induction: 13.21

## CC1(C)CCC(C)(C)c2cc(C#Cc3ccc(C(=O)O)cc3)ccc21 [EC23]
Pluripotent stem cells [4]
  effectiveness of DFE induction by alternative retinoic acid pathway agonists: operates equivalently to RA

## O=C(NOC[C@H](O)CO)c1ccc(F)c(F)c1Nc1ccc(I)cc1F [PD0325901]
DFE culture
  factor contribution (FC) for PDX1 (pancreatic) activation: 29.62

## Cc1cccc(-c2nn(C(=S)Nc3ccccc3)cc2-c2ccnc3ccccc23)n1 [Alk5i, A8301]
Pluripotent cultures [1]
  factor contribution (FC) for FOXA2 expression: 8.88
  factor contribution (FC) for HNF1β expression: 7.59
  factor contribution (FC) for MNX1 expression: 18.98

## CC1=C(/C=C/C(C)=C/C=C/C(C)=C/C(=O)O)C(C)(C)CCC1 [RA, retinoic acid]
Pluripotent stem cells [3]
  factor contribution (FC) to HNF1β induction: 2.773
DFE culture
  factor contribution (FC) for OSR1 (gastric) activation: 30.68
  factor contribution (FC) for SOX2 expression: −28.59
  factor contribution (FC) for PDX1 (pancreatic) activation: 31.38
Pluripotent cultures [1]
  factor contribution (FC) for FOXA2 expression: 24.8
  factor contribution (FC) for HNF1β expression: 30.1
  factor contribution (FC) for MNX1 expression: 22.7

B1: Activin A (protein, UniProt P08476 311-426, looked up)
Inhibin beta A chain: GLECDGKVNICCKKQFFVSFKDIGWNDWIIAPSGYHANYCEGECPSHIAGTSGSSLSFHSTVINHYRMRGHSPFANLKSCCVPTKLRPMSMLYYDDGQNIIKKDIQNMIVEECGCS
modifications: Inhibin beta A chain
notes: TGFβ pathway agonist used as a Nodal mimic
Pluripotent cultures [5]
  normalized factor contribution for OSR1 activation: −1.0
  normalized factor contribution for PAX9 activation: −0.85
  normalized factor contribution for TBX1 activation: −0.59
Pluripotent cultures [1]; FOXA2, HNF1β, MNX1 etc.
  contribution to activating retinoic acid/BMP inhibition-dependent endoderm genes: no contribution
Pluripotent cultures [1]; maximal MESP1, EOMES, BRACHYURY/T, minimal EVX1
  factor contribution (FC) to anterior primitive streak (APS) gene induction: 18.85

B2: FGF4 (protein, UniProt P08620 31-206, looked up)
Fibroblast growth factor 4: APTAPNGTLEAELERRWESLVALSLARLPVAAQPKEAAVQSGAGDYLLGIKRLRRLYCNVGIGFHLQALPDGRIGGAHADTRDSLLELSPVERGVVSIFGVASRFFVAMSSKGKLYGSPFFTDECTFKEILLPNNYNAYESYKYPGMFIALSKNGKTKKGNRVSPTMKVTHFLPRL
notes: FGF signaling growth factor (R&D 7460-F4)
DFE culture
  factor contribution (FC) for OSR1 (gastric) activation: 13.45
